B1: TNAP: human tissue nonspecific alkaline phosphatase, element that triggers biomineralization (protein, UniProt P05186 18-501, looked up)
Alkaline phosphatase, …: LVPEKEKDPKYWRDQAQETLKYALELQKLNTNVAKNVIMFLGDGMGVSTVTAARILKGQLHHNPGEETRLEMDKFPFVALSKTYNTNAQVPDSAGTATAYLCGVKANEGTVGVSAATERSRCNTTQGNEVTSILRWAKDAGKSVGIVTTTRVNHATPSAAYAHSADRDWYSDNEMPPEALSQGCKDIAYQLMHNIRDIDVIMGGGRKYMYPKNKTDVEYESDEKARGTRLDGLDLVDTWKSFKPRYKHSHFIWNRTELLTLDPHNVDYLLGLFEPGDMQYELNRNNVTDPSLSEMVVVAIQILRKNPKGFFLLVEGGRIDHGHHEGKAKQALHEAVEMDRAIGQAGSLTSSEDTLTVVTADHSHVFTFGGYTPRGNSIFGLAPMLSDTDKKPFTAILYGNGPGYKVVGGERENVSMVDYAHNNYQAQSAVPLRHETHGGEDVAVFSKGPMAHLLHGVHEQNYVPHVMAYAACIGANLGHCAPAS

Tests used:
[1] = references 30-31; cited from earlier work
HCN-2 cells = test: Inhibition of biomineralization (hydroxyapatite production) by HCN-2 cells, Alizarin Red staining; type: cell-based, human; conditions: for effect on alkaline phosphatase and alpha-glycerophosphate triggered biomineralization / hydroxyapatite production by HCN-2 cells, each compound alone: FIGS. 5A-5B
[2] = tested on: in vitro biomineralization reaction; test: Titration of the elements that trigger the in vitro biomineralization reaction; type: cell-based; conditions: titration assays, calcium, αGP and TNAP concomitantly present
Method: It is determined herein that the biomineralization reaction is dose-dependent on calcium, alpha-glycerophosphate and alkaline phosphatase. It is known that the physiological concentration of alkaline phosphatase in the brain is 1-2 international units per liter (IU/L), which is substantially lower than alkaline phosphatase in peripheral blood serum (44 to 147 IU/L)) (35, 36). […] The minimum dose of calcium, αGP, and TNAP that promptly triggers in vitro biomineralization reaction is 0.45 mM, 1.0 mM, and 100 IU/L, respectively (22).
To measure the physiological glycerophosphate, a method to quantify this organic compound in peripheral blood serum was invented The method of quantifying alpha-glycerophosphate is disclosed in international publication WO 2021/076851, the entirety of which is hereby incorporated by reference. […] The physiological concentration of alpha-glycerophosphate varied substantially amid adult individuals with a mean value of 2.90 mM and standard deviation of 1.98 (median=2.42 mM, max=9.60 mM, and min=0.15 mM). The wide range of alpha-glycerophosphate in blood is likely attributed to personal diet, e.g., a fatty diet and gut microbiome, and physical activity because alpha-glycerophosphate is a metabolite derived from fat to energize mitochondria (37). Overall, 83% of tested samples contained alpha-glycerophosphate greater than 1.0 mM, which is sufficient to trigger biomineralization when calcium and alkaline phosphatase are concomitantly present.

| Molecule | crossing of the blood-brain barrier [1] | effect on alkaline phosphatase and alpha-glycerophosphate triggered biomineralization (HCN-2 cells) | hydroxyapatite production by HCN-2 cells, each compound alone (HCN-2 cells; in vitro) | minimum dose that promptly triggers in vitro biomineralization reaction [2] | other results |
| --- | --- | --- | --- | --- | --- |
| O=C(O)P(=O)(O)O [Foscarnet, phosphonoformic acid] | cross the blood-brain barrier | inhibitory effects | entirely cease | – | concentration of Foscarnet that can competitively inhibit biomineralization (HCN-2 cells; in vitro, HCN-2 cells, MEMα/10% FBS with αGP and TNAP, 7 days, Alizarin Red (FIGS. 5A-5B)): at least 0.02 mM |
| Cl.c1ccc([C@H]2CN3CCSC3=N2)cc1 [Levamisole, (−)-(s)-2,3,5,6-tetrahydro-6-phenylimidazo(2,1-b)thiazole mono hydrochloride] | cross the blood-brain barrier | inhibitory effects | entirely cease | – | concentration of Levamisole at which biomineralization is inhibited (HCN-2 cells; HCN-2 cells, alpha-glycerophosphate 2 mM, recombinant human TNAP 1,000 U/L): 1 mM |
| O=P(O)(O)OCC(O)CO (stereo not drawn) [αGP, alpha-glycerophosphate] | – | – | – | 1.0 mM | minimum dose that promptly triggers in vitro biomineralization reaction ([2]; listed as alpha-glycerophosphate): ≥ 1.0 mM |
| [Ca+2] [calcium] | – | – | – | 0.45 mM | – |
| B1 | – | – | – | 100 IU/L | – |

Source: US20250090505A1, “Methods for Preventing Ectopic Brain Mineralization in Alzheimer's Disease and Dementias” (Tzerma LLC, priority 2022, published 2025)
